Reference: PubChem BioAssay AID1259407 (Chemical Carcinogenesis Research Information System (CCRIS), 2018)
The source made the active and inactive calls. How the calls were made is not given here.

Tested on: CCRIS mutagenicity, Ames/micronucleus/aberration tests
Assay: CCRIS mutagenicity studies
[1] = Test System: AMES SALMONELLA TYPHIMURIUM, Strain/Indicator: TA98, Metabolic Activation: NONE, Method: PREINCUBATION
[2] = Test System: AMES SALMONELLA TYPHIMURIUM, Strain/Indicator: TA100, Metabolic Activation: NONE, Method: PREINCUBATION

Q: `CN(Cc1cnc2nc(N)nc(N)c2n1)c1c(Cl)cc(C(=O)N[C@@H](CCC(=O)O)C(=O)O)cc1Cl` was tested. Which mutagenic call (Test System: AMES SALMONELLA TYPHIMURIUM, Strain/Indicator: TA97, Metabolic Activation: HAMSTER, LIVER, S-9, AROCLOR 1254 (10 OR 30%), Method: PREINCUBATION) did it give?
A: Its mutagenic call is “inactive; negative”.

Q: What about the mutagenic call (Test System: AMES SALMONELLA TYPHIMURIUM, Strain/Indicator: TA97, Metabolic Activation: NONE, Method: PREINCUBATION) of the same molecule?
A: Its mutagenic call is “inactive; negative”.

Q: What about the mutagenic call (Test System: AMES SALMONELLA TYPHIMURIUM, Strain/Indicator: TA97, Metabolic Activation: RAT, LIVER, S-9, AROCLOR 1254 (10 OR 30%), Method: PREINCUBATION) of the same molecule?
A: Its mutagenic call is “inactive; negative”.

Q: What about the mutagenic call (Test System: AMES SALMONELLA TYPHIMURIUM, Strain/Indicator: TA98, Metabolic Activation: HAMSTER, LIVER, S-9, AROCLOR 1254 (10 OR 30%), Method: PREINCUBATION) of the same molecule?
A: Its mutagenic call is “inactive; negative”.

Q: And the mutagenic call [1]?
A: Its mutagenic call is “inactive; negative”.

Q: What about the mutagenic call (Test System: AMES SALMONELLA TYPHIMURIUM, Strain/Indicator: TA98, Metabolic Activation: RAT, LIVER, S-9, AROCLOR 1254 (10 OR 30%), Method: PREINCUBATION) of the same molecule?
A: Its mutagenic call is “inactive; negative”.

Q: What about the mutagenic call (Test System: AMES SALMONELLA TYPHIMURIUM, Strain/Indicator: TA100, Metabolic Activation: HAMSTER, LIVER, S-9, AROCLOR 1254 (10 OR 30%), Method: PREINCUBATION) of the same molecule?
A: The mutagenic call was “inactive; negative”.

Q: And the mutagenic call [2]?
A: Its mutagenic call is “inactive; negative”.

Q: And the mutagenic call (Test System: AMES SALMONELLA TYPHIMURIUM, Strain/Indicator: TA100, Metabolic Activation: RAT, LIVER, S-9, AROCLOR 1254 (10 OR 30%), Method: PREINCUBATION)?
A: The mutagenic call was “inactive; negative”.

Q: What about the mutagenic call (Test System: AMES SALMONELLA TYPHIMURIUM, Strain/Indicator: TA1535, Metabolic Activation: HAMSTER, LIVER, S-9, AROCLOR 1254 (10 OR 30%), Method: PREINCUBATION) of the same molecule?
A: Its mutagenic call is “inactive; negative”.

Q: And the mutagenic call (Test System: AMES SALMONELLA TYPHIMURIUM, Strain/Indicator: TA1535, Metabolic Activation: NONE, Method: PREINCUBATION)?
A: Its mutagenic call is “inactive; negative”.

Q: And the mutagenic call (Test System: AMES SALMONELLA TYPHIMURIUM, Strain/Indicator: TA1535, Metabolic Activation: RAT, LIVER, S-9, AROCLOR 1254 (10 OR 30%), Method: PREINCUBATION)?
A: The mutagenic call was “inactive; negative”.

Q: What about the mutagenic call (Test System: AMES SALMONELLA TYPHIMURIUM, Strain/Indicator: TA1537, Metabolic Activation: HAMSTER, LIVER, S-9, AROCLOR 1254 (10 OR 30%), Method: PREINCUBATION) of the same molecule?
A: The mutagenic call was “inactive; negative”.

Q: And the mutagenic call (Test System: AMES SALMONELLA TYPHIMURIUM, Strain/Indicator: TA1537, Metabolic Activation: NONE, Method: PREINCUBATION)?
A: Its mutagenic call is “inactive; negative”.

Q: And the mutagenic call (Test System: AMES SALMONELLA TYPHIMURIUM, Strain/Indicator: TA1537, Metabolic Activation: RAT, LIVER, S-9, AROCLOR 1254 (10 OR 30%), Method: PREINCUBATION)?
A: Its mutagenic call is “inactive; negative”.

Q: With `CNC(=O)CN(CCN(CCN(CC(=O)O)CC(=O)NC)CC(=O)O)CC(=O)O` as the molecule, how does the mutagenic call (Test System: AMES SALMONELLA TYPHIMURIUM, Strain/Indicator: TA98, Metabolic Activation: NONE) read?
A: The mutagenic call was “inactive; negative”.

Q: What about the mutagenic call (Test System: AMES SALMONELLA TYPHIMURIUM, Strain/Indicator: TA98, Metabolic Activation: RAT, LIVER, S-9, AROCLOR 1254) of the same molecule?
A: Its mutagenic call is “inactive; negative”.

Q: And the mutagenic call (Test System: AMES SALMONELLA TYPHIMURIUM, Strain/Indicator: TA100, Metabolic Activation: NONE)?
A: The mutagenic call was “inactive; negative”.

Q: What about the mutagenic call (Test System: AMES SALMONELLA TYPHIMURIUM, Strain/Indicator: TA100, Metabolic Activation: RAT, LIVER, S-9, AROCLOR 1254) of the same molecule?
A: The mutagenic call was “inactive; negative”.

Q: What about the mutagenic call (Test System: AMES SALMONELLA TYPHIMURIUM, Strain/Indicator: TA1535, Metabolic Activation: NONE) of the same molecule?
A: The mutagenic call was “inactive; negative”.

Q: What about the mutagenic call (Test System: AMES SALMONELLA TYPHIMURIUM, Strain/Indicator: TA1535, Metabolic Activation: RAT, LIVER, S-9, AROCLOR 1254) of the same molecule?
A: Its mutagenic call is “inactive; negative”.

Q: What about the mutagenic call (Test System: AMES SALMONELLA TYPHIMURIUM, Strain/Indicator: TA1537, Metabolic Activation: NONE) of the same molecule?
A: The mutagenic call was “inactive; negative”.

Q: And the mutagenic call (Test System: AMES SALMONELLA TYPHIMURIUM, Strain/Indicator: TA1537, Metabolic Activation: RAT, LIVER, S-9, AROCLOR 1254)?
A: The mutagenic call was “inactive; negative”.

Q: And the mutagenic call (Test System: CHINESE HAMSTER OVARY, Strain/Indicator: CHO-K1-BH4 (HGPRT)/6-THIOGUANINE, Metabolic Activation: NONE)?
A: The mutagenic call was “inactive; negative”.

Q: And the mutagenic call (Test System: CHINESE HAMSTER OVARY, Strain/Indicator: CHO-K1-BH4 (HGPRT)/6-THIOGUANINE, Metabolic Activation: RAT, LIVER, S-9, AROCLOR 1254)?
A: Its mutagenic call is “inactive; negative”.

Q: And the mutagenic call (Test System: E.COLI, Strain/Indicator: WP2 UVRA, Metabolic Activation: NONE)?
A: Its mutagenic call is “inactive; negative”.

Q: What about the mutagenic call (Test System: E.COLI, Strain/Indicator: WP2 UVRA, Metabolic Activation: RAT, LIVER, S-9, AROCLOR 1254) of the same molecule?
A: The mutagenic call was “inactive; negative”.

Q: For `ClC(Cl)c1ccccc1`, which mutagenic call (Test System: AMES SALMONELLA TYPHIMURIUM, Strain/Indicator: TA98, Metabolic Activation: HAMSTER, LIVER, S-9, AROCLOR 1254 (30%), Method: PREINCUBATION) is on record?
A: The mutagenic call was “inactive; negative”.

Q: And the mutagenic call [1]?
A: Its mutagenic call is “active; positive”.

Q: And the mutagenic call (Test System: AMES SALMONELLA TYPHIMURIUM, Strain/Indicator: TA98, Metabolic Activation: RAT, LIVER, S-9, AROCLOR 1254 (30%), Method: PREINCUBATION)?
A: The mutagenic call was “active; positive”.

Q: What about the mutagenic call (Test System: AMES SALMONELLA TYPHIMURIUM, Strain/Indicator: TA100, Metabolic Activation: HAMSTER, LIVER, S-9, AROCLOR 1254 (30%), Method: PREINCUBATION) of the same molecule?
A: Its mutagenic call is “active; positive”.

Q: And the mutagenic call [2]?
A: The mutagenic call was “active; positive”.

Q: What about the mutagenic call (Test System: AMES SALMONELLA TYPHIMURIUM, Strain/Indicator: TA100, Metabolic Activation: RAT, LIVER, S-9, AROCLOR 1254 (30%), Method: PREINCUBATION) of the same molecule?
A: Its mutagenic call is “active; positive”.

Q: And the mutagenic call (Test System: AMES SALMONELLA TYPHIMURIUM, Strain/Indicator: TA100, Metabolic Activation: RAT, LIVER, S-9, AROCLOR 1254, Method: PREINCUBATION)?
A: Its mutagenic call is “active; positive”.
